Measurements published in US9943529B2, “Methods for reducing cellular proliferation and treating certain diseases” (BRIGHAM YOUNG UNIVERSITY, priority 2013, dated 2018).

What was measured:
MCF7 = assay: cells; conditions: Homo sapiens, MCF7, 48 h
HCT-116 = assay: cells; conditions: Homo sapiens, HCT-116, 48 h
ACHN = assay: cells; conditions: Homo sapiens, 48 h
K-562 = assay: NCI screen antiproliferative activity, sulforhodamine B, Leukemia panel; assay type: cell-based, human; conditions: five 10-fold dilutions starting from 100 μM
TK-10 = conditions: 48 hours, five 10-fold dilutions starting from 100 μM
SN12C [1] = conditions: 48 hours, five 10-fold dilutions starting from 100 μM
SF-295 = assay: cells; conditions: Homo sapiens, SF-295, 48 h
OVCAR-8 [2] = conditions: 48 hours, five 10-fold dilutions starting from 100 μM
UACC-257 [3] = conditions: 48 hours, five 10-fold dilutions starting from 100 μM
BT-549 = conditions: 48 hours, five 10-fold dilutions starting from 100 μM
SF-539 = conditions: 48 hours, five 10-fold dilutions starting from 100 μM
T-47D [4] = conditions: 48 hours, five 10-fold dilutions starting from 100 μM
HCC-2998 [5] = assay: cells; conditions: Homo sapiens, HCC 2998, 48 h
NCI-H23 [6] = assay: cells; conditions: Homo sapiens, NCI-H23, 48 h
SNB-75 = assay: cells; conditions: Homo sapiens, SNB-75, 48 h
UO-31 = assay: cells; conditions: Homo sapiens, UO-31, 48 h
UACC-62 [7] = conditions: 48 hours, five 10-fold dilutions starting from 100 μM
UACC-257 [8] = assay: cells; conditions: Homo sapiens, UACC-257, 48 h
SNB-19 = conditions: 48 hours, five 10-fold dilutions starting from 100 μM
NCI-H23 [9] = conditions: 48 hours, five 10-fold dilutions starting from 100 μM
SN12C [10] = assay: cells; conditions: Homo sapiens, 48 h
HCC-2998 [11] = conditions: 48 hours, five 10-fold dilutions starting from 100 μM
HOP-92 = assay: cells; conditions: Homo sapiens, HOP-92, 48 h
LOX IMVI = assay: NCI screen antiproliferative activity, sulforhodamine B, Melanoma panel; assay type: cell-based, human; conditions: 48 hours, five 10-fold dilutions starting from 100 μM
OVCAR-8 [12] = assay: cells; conditions: Homo sapiens, OVCAR-8, 48 h
IGROV1 = conditions: 48 hours, five 10-fold dilutions starting from 100 μM
CAKI-1 = assay: cells; conditions: Homo sapiens, CAKI-1, 48 h
HS 578T = assay: NCI screen antiproliferative activity, sulforhodamine B, Breast Cancer panel; assay type: cell-based, human; conditions: 48 hours, five 10-fold dilutions starting from 100 μM
DU-145 = conditions: 48 hours, five 10-fold dilutions starting from 100 μM
OVCAR-4 = conditions: 48 hours, five 10-fold dilutions starting from 100 μM
UACC-62 [13] = assay: cells; conditions: Homo sapiens, UACC-62, 48 h
MDA-MB-435 = assay: cells; conditions: Homo sapiens, MDA-MB-435, 48 h
COLO 205 = assay: NCI screen antiproliferative activity, sulforhodamine B, Colon Cancer panel; assay type: cell-based, human; conditions: 48 hours, five 10-fold dilutions starting from 100 μM
SK-MEL-5 = assay: NCI screen antiproliferative activity, sulforhodamine B, Melanoma panel; assay type: cell-based, human; conditions: 48 hours, five 10-fold dilutions starting from 100 μM
SK-MEL-28 = assay: cells; conditions: Homo sapiens, SK-MEL-28, 48 h
RXF 393 = conditions: 48 hours, five 10-fold dilutions starting from 100 μM
A549/ATCC = conditions: 48 hours, five 10-fold dilutions starting from 100 μM
T-47D [14] = assay: cells; conditions: Homo sapiens, T47D, 48 h
KM12 = assay: NCI screen antiproliferative activity, sulforhodamine B, Colon Cancer panel; assay type: cell-based, human; conditions: 48 hours, five 10-fold dilutions starting from 100 μM
OVCAR-3 = conditions: 48 hours, five 10-fold dilutions starting from 100 μM
MOLT-4 = assay: NCI screen antiproliferative activity, sulforhodamine B, Leukemia panel; assay type: cell-based, human; conditions: 48 hours, five 10-fold dilutions starting from 100 μM
MALME-3M = assay: NCI screen antiproliferative activity, sulforhodamine B, Melanoma panel; assay type: cell-based, human; conditions: 48 hours, five 10-fold dilutions starting from 100 μM
NCI-H522 = conditions: 48 hours, five 10-fold dilutions starting from 100 μM
M14 = assay: cells; conditions: Homo sapiens, M14, 48 h

## CCCCCCCCNCCC[C@@H](C)[C@H]1CC[C@H]2[C@@H]3[C@H](OCCCN)C[C@@H]4C[C@H](OCCCN)CC[C@]4(C)[C@H]3C[C@H](OCCCN)[C@]12C [CSA-13]
MCF7
  GI50: 1.63 µM
MCF7; read-out: LC50
  CC50: 5.85 µM
HCT-116
  GI50: 0.87 µM
HCT-116; read-out: LC50
  CC50: 7.25 µM
ACHN
  GI50: 1.48 µM
ACHN; read-out: LC50
  CC50: 9.17 µM
K-562; 48 hours
  TGI: 2.47 µM
K-562; Homo sapiens, K562, 48 hours
  GI50: 1.04 µM
TK-10
  TGI: 4.70 µM
SN12C [1]
  TGI: 3.55 µM
SF-295
  GI50: 0.496 µM
SF-295; read-out: LC50
  CC50: 24 µM
OVCAR-8 [2]
  TGI: 4.01 µM
UACC-257 [3]
  TGI: 9.00 µM
BT-549
  TGI: 3.28 µM
SF-539
  TGI: 1.41 µM
T-47D [4]
  TGI: 7.13 µM
HCC-2998 [5]
  GI50: 1.51 µM
HCC-2998 [5]; read-out: LC50
  CC50: 13.3 µM
NCI-H23 [6]
  GI50: 1.24 µM
NCI-H23 [6]; read-out: LC50
  CC50: 7.87 µM
SNB-75
  GI50: 1.76 µM
SNB-75; read-out: LC50
  CC50: 57.2 µM
UO-31
  GI50: 1.49 µM
UO-31; read-out: LC50
  CC50: > 100 µM
UACC-62 [7]
  TGI: 2.29 µM
UACC-257 [8]
  GI50: 2.71 µM
UACC-257 [8]; read-out: LC50
  CC50: 97.9 µM
SNB-19
  TGI: 5.05 µM
NCI-H23 [9]
  TGI: 3.12 µM
SN12C [10]
  GI50: 0.571 µM
SN12C [10]; read-out: LC50
  CC50: 27 µM
HCC-2998 [11]
  TGI: 3.98 µM
HOP-92
  GI50: 0.408 µM
HOP-92; read-out: LC50
  CC50: > 100 µM
LOX IMVI
  TGI: 1.73 µM
LOX IMVI; Homo sapiens
  GI50: 0.378 µM
OVCAR-8 [12]
  GI50: 1.64 µM
OVCAR-8 [12]; read-out: LC50
  CC50: 9.82 µM
IGROV1
  TGI: 3.54 µM
CAKI-1
  GI50: 2.05 µM
CAKI-1; read-out: LC50
  CC50: 68 µM
HS 578T
  TGI: 2.35 µM
HS 578T; Homo sapiens
  GI50: 0.854 µM
DU-145
  TGI: 2.35 µM
OVCAR-4
  TGI: 25.2 µM
UACC-62 [13]
  GI50: 0.482 µM
UACC-62 [13]; read-out: LC50
  CC50: 9.43 µM
MDA-MB-435
  GI50: 0.318 µM
MDA-MB-435; read-out: LC50
  CC50: 5.68 µM
COLO 205
  TGI: 3.02 µM
COLO 205; Homo sapiens
  GI50: 1.27 µM
SK-MEL-5
  TGI: 1.92 µM
SK-MEL-5; Homo sapiens
  GI50: 0.504 µM
SK-MEL-28
  GI50: 0.291 µM
SK-MEL-28; read-out: LC50
  CC50: 5.46 µM
RXF 393
  TGI: 15.6 µM
A549/ATCC
  TGI: 9.33 µM
T-47D [14]
  GI50: 1.92 µM
T-47D [14]; read-out: LC50
  CC50: > 100 µM
KM12
  TGI: 2.76 µM
KM12; Homo sapiens
  GI50: 0.586 µM
OVCAR-3
  TGI: 14.8 µM
MOLT-4
  TGI: 2.93 µM
MOLT-4; Homo sapiens
  GI50: 1.25 µM
MALME-3M
  TGI: 3.88 µM
MALME-3M; Homo sapiens
  GI50: 1.76 µM
NCI-H522
  TGI: 10.5 µM
M14
  GI50: 1.18 µM
M14; read-out: LC50
  CC50: 12.6 µM
